Turning to `C=CCNc1nc(NCC=C)nc(N2CCN(C(=S)n3ccnc3)CC2)n1`, the melting point was 124 to 127 °C.
As for `O=C1c2cccc3c(Cl)ccc(c23)C(=O)N1CCN1CCC(c2noc3cc(F)ccc23)CC1`, the melting point is 207 to 209 °C.
On to `C=CN(Cc1ccccc1)C(=O)C(F)(F)C(F)(F)C(F)(F)C(F)(F)C(F)(F)C(F)F`, for which the melting point lay within 53 to 57 °C.
Under `COCCN1CCN(c2ccc(NC(=O)c3cnn(-c4ccc(Cl)cc4)c3C)cc2C#N)CC1` stands 207 °C.
For `N#CC=C1CCN(c2ccc(N3C[C@@H](Cn4cc(CCC(=O)O)nn4)OC3=O)cc2)CC1`, the melting point lay within 120 to 122 °C.
In the case of `O=C(c1ccc(Oc2ccccc2)c([N+](=O)[O-])c1)c1ccc(Oc2ccccc2)c([N+](=O)[O-])c1`, the melting point was in the range of 111 to 113 °C.
Next, `Clc1ccc(-c2nc(Cl)cc(NCCN3CCOCC3)n2)cc1`: 127 to 129 °C; `Nc1ccc(C(=O)N(CCN2CCC(C(=O)c3ccc(F)cc3)CC2)c2ccccc2)cc1`: 156 to 157 °C; `CCCc1c(OCCCCC(=O)NCCCCc2cccnc2)ccc(C(C)=O)c1O`: 76 to 78 °C.
`CC(=O)Nc1nc(Cl)c2ncn(COC(COC(C)C)COC(C)C)c2n1` registered a melting point of 106 °C.
Under `CCc1n[nH]c2c(=O)[nH]c(-c3cc(S(C)(=O)=O)ccc3OCc3ccccn3)nc12` stands 283 to 286 °C.
With `C#CCOc1cc(-n2ncc(=O)n(C)c2=O)c(Cl)cc1Cl`, the melting point lay within 119 to 120 °C.
Next, `CCC1CC2(C)C(O)CCC2C2CCc3cccc(O)c3C12` (stereo not given): 155 to 157 °C; `O=C1CNc2cc(F)ccc2N1`: 176 to 178 °C.
`CC(=O)Cc1ccc(OCc2ccc(Cl)cc2)cc1`: the melting point was 76 to 80 °C.
Molecule `CCCCCCCCCCCCCC(=O)O[C@H](CCCCCCCCCCC)CC(=O)NC(=O)[C@@H](N)CO` displayed a melting point of 126 to 130 °C.
Under `CNC(=O)N(O)C(C)c1cc2ccccc2s1` (stereo not given) stands 149 to 150 °C; under `CC(=O)NCC(C)(C)c1ccc2nc(-c3c[nH]cn3)[nH]c2c1`, 235 to 237 °C.
Regarding `CCCCn1c(C=O)cnc1Cc1c(F)cccc1Cl`, the melting point was 88 to 90 °C.
The molecule `O=C(O)c1c2c(nc3ccc(F)cc13)-c1ccc(-c3ccccc3C(F)(F)F)cc1CCC2` returned a melting point greater than 300 °C.
Molecule `COCCN1CCc2ccc(Nc3ncc(Cl)c(Nc4ccc(OC)c5c4C(=O)N(C)C5)n3)cc2CC1` came in with a melting point of 206 to 207 °C.
`Cc1nc(N)nc(N)c1CCC(C)c1ccc(Cl)cc1Cl` (stereo not given): the melting point lay within 164 to 168 °C.
For the molecule `Cc1nc2ccccn2c(=O)c1CC1CCCCC1`, the melting point lay in the range of 112 to 114 °C.
For the molecule `CC(C(SC(=S)N(C)C)c1ccccc1)[N+](=O)[O-]` (stereo not given), the melting point is 92 to 94 °C.
Under `Cc1ccc(S(=O)(=O)N2CC2c2ccccc2)cc1` (stereo not given) stands 92 to 94 °C.
As to `Cc1cc(C2(C(F)(F)F)CN(c3ccc(C(=O)NCC(F)(F)F)cc3)CO2)ccc1F` (stereo not given), the melting point lay within 151 to 152 °C.
Next, `O=C(O)[C@@H](O)CNC(=O)C(F)(F)F`: 142 to 143 °C; `CS(=O)c1nnc2c(=O)c3ccccc3ccn12` (stereo not given): 208 to 211 °C; `CC1SC(=O)NN=C1c1ccc2c(c1)C(=NN(C)c1ccccc1)C(=O)N2` (stereo not given): 260 °C.
As to `CCOC(=O)c1c(N2CCNCC2)c2cc(C)ccc2n(-c2ccccc2)c1=O`, the melting point is 181 °C.
In turn, `CNS(=O)(=O)Cc1ccc2[nH]cc(CCN=CNc3cccnc3)c2c1` returned a melting point of 70 to 71 °C.
Molecule `CC(=O)Nc1ccc(Cc2nc3c(c4c2[nH]c2ccccc24)C(=O)CC(C)(C)C3)cc1` displayed a melting point of 153 to 154 °C.
For the molecule `CC(=O)c1cnc(O)c(Cl)c1`, the melting point is 188 to 189 °C.
Take `CC1=C(c2ccncc2)SC(OC(=O)c2cccc(Cl)c2)C(=O)N1` (stereo not given): the melting point is 142 to 143 °C.
For `CCCN1CCC(O)(c2cc(F)cc(F)c2)C1` (stereo not given), the melting point lay in the range of 117 to 118 °C.

For the origin of these results see a melting point compilation (Tetko et al.; mined from patent text by program, amines drawn as free bases though some values may be those of a salt).
